Laboratory results taken from article PMC9596375 (2022).
Values belong to the molecule of their own block, whether it stands above or below them.

Tests used:
[1] = system: X2B2-C14U (RNA, aptamer) GGAUACACAAGAGUGAUUGAAACUAAGUCUGUGUAUCC; experiment: ITC; conditions: 20 mM MgCl2; 10 mM Tris-HCl pH 7.5, 30 °C
[2] = system: X2B2 (RNA, aptamer) GGAUACACAAGAGCGAUUGAAACUAAGUCUGUGUAUCC; experiment: ITC; conditions: 20 mM MgCl2; 10 mM Tris-HCl pH 7.5, 30 °C
[3] = system: X2B2-C14U-dG13-dU18 (RNA, aptamer, 2'-deoxy at G13 and U18) GGAUACACAAGAGUGAUUGAAACUAAGUCUGUGUAUCC; experiment: UV-Vis absorbance shift; conditions: 30 mM MgCl2, 140 mM KCl, 10 mM NaCl; 50 mM Tris pH 7.0; ∆λmax 7
[4] = system: X2B2-C14U-dU18 (RNA, aptamer, 2'-deoxy at U18) GGAUACACAAGAGUGAUUGAAACUAAGUCUGUGUAUCC; experiment: UV-Vis absorbance shift; conditions: 30 mM MgCl2, 140 mM KCl, 10 mM NaCl; 50 mM Tris pH 7.0; ∆λmax 7
[5] = system: X2B2-C14U-dG13 (RNA, aptamer, 2'-deoxy at G13) GGAUACACAAGAGUGAUUGAAACUAAGUCUGUGUAUCC; experiment: UV-Vis absorbance shift; conditions: 30 mM MgCl2, 140 mM KCl, 10 mM NaCl; 50 mM Tris pH 7.0; ∆λmax 10
[6] = system: X2B2-A12U (RNA, aptamer) GGAUACACAAGUGCGAUUGAAACUAAGUCUGUGUAUCC; experiment: UV-Vis absorbance shift; conditions: 30 mM MgCl2, 140 mM KCl, 10 mM NaCl; 50 mM Tris pH 7.0; 40 µM RNA, 40 µM FAD; ∆λmax 0
[7] = system: X2B2-A21U (RNA, aptamer) GGAUACACAAGAGCGAUUGAUACUAAGUCUGUGUAUCC; experiment: UV-Vis absorbance shift; conditions: 30 mM MgCl2, 140 mM KCl, 10 mM NaCl; 50 mM Tris pH 7.0; 40 µM RNA, 40 µM FAD; ∆λmax 1
[8] = system: X2B2-C3 (RNA, aptamer) GGAUACAGUAGAGCGAUUGAAACUAAGUCACUGUAUCC; experiment: UV-Vis absorbance shift; conditions: 30 mM MgCl2, 140 mM KCl, 10 mM NaCl; 50 mM Tris pH 7.0; 40 µM RNA, 40 µM FAD; ∆λmax 5
[9] = system: X2B2-C14A (RNA, aptamer) GGAUACACAAGAGAGAUUGAAACUAAGUCUGUGUAUCC; experiment: UV-Vis absorbance shift; conditions: 30 mM MgCl2, 140 mM KCl, 10 mM NaCl; 50 mM Tris pH 7.0; 40 µM RNA, 40 µM FAD; ∆λmax 5
[10] = system: X2B2-D4 (RNA, aptamer) GGAUAGCCAAGAGCGAUUGAAACUAAGUCUGUGUAUCC; experiment: UV-Vis absorbance shift; conditions: 30 mM MgCl2, 140 mM KCl, 10 mM NaCl; 50 mM Tris pH 7.0; 40 µM RNA, 40 µM FAD; ∆λmax 6
[11] = system: X2B2-D2 (RNA, aptamer) GGAUACACAAGAGCACUUGAAACUAAGUCUGUGUAUCC; experiment: UV-Vis absorbance shift; conditions: 30 mM MgCl2, 140 mM KCl, 10 mM NaCl; 50 mM Tris pH 7.0; 40 µM RNA, 40 µM FAD; ∆λmax 4
[12] = system: X2B2-D1 (RNA, aptamer) GGAUACACAAGAGCGAACGAAACUAAGUCUGUGUAUCC; experiment: UV-Vis absorbance shift; conditions: 30 mM MgCl2, 140 mM KCl, 10 mM NaCl; 50 mM Tris pH 7.0; 40 µM RNA, 40 µM FAD; ∆λmax 1
[13] = system: X2B2-C1 (RNA, aptamer) GGAUACACAAGAGCGAACGAAACUAGUUCUGUGUAUCC; experiment: UV-Vis absorbance shift; conditions: 30 mM MgCl2, 140 mM KCl, 10 mM NaCl; 50 mM Tris pH 7.0; 40 µM RNA, 40 µM FAD; ∆λmax 0
[14] = system: X2B2-D3 (RNA, aptamer) GGAUACAGUAGAGCGAUUGAAACUAAGUCUGUGUAUCC; experiment: UV-Vis absorbance shift; conditions: 30 mM MgCl2, 140 mM KCl, 10 mM NaCl; 50 mM Tris pH 7.0; 40 µM RNA, 40 µM FAD; ∆λmax 5
[15] = system: 12.29 (RNA, aptamer) GGGAAAAGCGAAUCAUACACAAGAGCGAUUGAAACUAAGUCUGUGCUAUGUUCGUUAUCGCCGGUGGGGCAUAAGGUAUUUAAUUCCAUA; experiment: in-line probing; conditions: 30 mM MgCl2; 25 mM Tris pH 8.0, 37 °C, 18 h; 500 µM FAD
[16] = system: X2B2-C14U-BT1 (RNA, aptamer) GGAUACAAACGAGUGAUUGAAACUAAGUCGUUGUAUCC; experiment: UV-Vis absorbance shift; conditions: 30 mM MgCl2, 140 mM KCl, 10 mM NaCl; 50 mM Tris pH 7.0; 40 µM RNA, 40 µM FAD; ∆λmax 9
[17] = system: 12.8 (RNA, aptamer) GGGAAAAGCGAAUCAUACACAAGAGUGUGACGCACUUUAUGAUCGGAGGCCGUCAUUGUAUGGCGUGGGCAUAAGGUAUUUAAUUCCAUA; experiment: in-line probing; conditions: 30 mM MgCl2; 25 mM Tris pH 8.0, 37 °C, 18 h; 500 µM FAD
[18] = system: X2B2-ΔC14 (RNA, aptamer) GGAUACACAAGAGGAUUGAAACUAAGUCUGUGUAUCC; experiment: UV-Vis absorbance shift; conditions: 30 mM MgCl2, 140 mM KCl, 10 mM NaCl; 50 mM Tris pH 7.0; 40 µM RNA, 40 µM FAD; ∆λmax 1
[19] = system: X2B2-A20U (RNA, aptamer) GGAUACACAAGAGCGAUUGUAACUAAGUCUGUGUAUCC; experiment: UV-Vis absorbance shift; conditions: 30 mM MgCl2, 140 mM KCl, 10 mM NaCl; 50 mM Tris pH 7.0; 40 µM RNA, 40 µM FAD; ∆λmax 0
[20] = system: X2B2-C23U (RNA, aptamer) GGAUACACAAGAGCGAUUGAAAUUAAGUCUGUGUAUCC; experiment: UV-Vis absorbance shift; conditions: 30 mM MgCl2, 140 mM KCl, 10 mM NaCl; 50 mM Tris pH 7.0; 40 µM RNA, 40 µM FAD; ∆λmax 2
[21] = system: X2B2-ΔA9 (RNA, aptamer) GGAUACACAGAGCGAUUGAAACUAAGUCUGUGUAUCC; experiment: UV-Vis absorbance shift; conditions: 30 mM MgCl2, 140 mM KCl, 10 mM NaCl; 50 mM Tris pH 7.0; 40 µM RNA, 40 µM FAD; ∆λmax 2
[22] = system: X2B2-C4 (RNA, aptamer) GGAUAGCCAAGAGCGAUUGAAACUAAGUCUGGCUAUCC; experiment: UV-Vis absorbance shift; conditions: 30 mM MgCl2, 140 mM KCl, 10 mM NaCl; 50 mM Tris pH 7.0; 40 µM RNA, 40 µM FAD; ∆λmax 7
[23] = system: X2B2-G19U (RNA, aptamer) GGAUACACAAGAGCGAUUUAAACUAAGUCUGUGUAUCC; experiment: UV-Vis absorbance shift; conditions: 30 mM MgCl2, 140 mM KCl, 10 mM NaCl; 50 mM Tris pH 7.0; 40 µM RNA, 40 µM FAD; ∆λmax 2
[24] = system: X2B2-BT1 (RNA, aptamer) GGAUACAAACGAGCGAUUGAAACUAAGUCGUUGUAUCC; experiment: UV-Vis absorbance shift; conditions: 30 mM MgCl2, 140 mM KCl, 10 mM NaCl; 50 mM Tris pH 7.0; 40 µM RNA, 40 µM FAD; ∆λmax 5
[25] = system: X2B2-C14U-U24A (RNA, aptamer) GGAUACACAAGAGUGAUUGAAACAAAGUCUGUGUAUCC; experiment: UV-Vis absorbance shift; conditions: 30 mM MgCl2, 140 mM KCl, 10 mM NaCl; 50 mM Tris pH 7.0; 40 µM RNA, 40 µM FAD; ∆λmax 1
[26] = system: Neg (RNA, other) GGAACUGCGAUCUAGUGAGACUGACUCGUGAUCGGA; experiment: UV-Vis absorbance shift; conditions: 30 mM MgCl2, 140 mM KCl, 10 mM NaCl; 50 mM Tris pH 7.0
[27] = system: X2B2-A25U (RNA, aptamer) GGAUACACAAGAGCGAUUGAAACUUAGUCUGUGUAUCC; experiment: UV-Vis absorbance shift; conditions: 30 mM MgCl2, 140 mM KCl, 10 mM NaCl; 50 mM Tris pH 7.0; 40 µM RNA, 40 µM FAD; ∆λmax 2
[28] = system: X2B2-U24A (RNA, aptamer) GGAUACACAAGAGCGAUUGAAACAAAGUCUGUGUAUCC; experiment: UV-Vis absorbance shift; conditions: 30 mM MgCl2, 140 mM KCl, 10 mM NaCl; 50 mM Tris pH 7.0; 40 µM RNA, 40 µM FAD; ∆λmax 6
[29] = system: X2B2-A10U (RNA, aptamer) GGAUACACAUGAGCGAUUGAAACUAAGUCUGUGUAUCC; experiment: UV-Vis absorbance shift; conditions: 30 mM MgCl2, 140 mM KCl, 10 mM NaCl; 50 mM Tris pH 7.0; 40 µM RNA, 40 µM FAD; ∆λmax 5
[30] = system: X2B2-C14G (RNA, aptamer) GGAUACACAAGAGGGAUUGAAACUAAGUCUGUGUAUCC; experiment: UV-Vis absorbance shift; conditions: 30 mM MgCl2, 140 mM KCl, 10 mM NaCl; 50 mM Tris pH 7.0; 40 µM RNA, 40 µM FAD; ∆λmax 2
[31] = system: X2B2-G13U (RNA, aptamer) GGAUACACAAGAUCGAUUGAAACUAAGUCUGUGUAUCC; experiment: UV-Vis absorbance shift; conditions: 30 mM MgCl2, 140 mM KCl, 10 mM NaCl; 50 mM Tris pH 7.0; 40 µM RNA, 40 µM FAD; ∆λmax 1
[32] = system: X2B2-G11U (RNA, aptamer) GGAUACACAAUAGCGAUUGAAACUAAGUCUGUGUAUCC; experiment: UV-Vis absorbance shift; conditions: 30 mM MgCl2, 140 mM KCl, 10 mM NaCl; 50 mM Tris pH 7.0; 40 µM RNA, 40 µM FAD; ∆λmax 0
[33] = system: X2B2-C14U-ΔA9 (RNA, aptamer) GGAUACACAGAGUGAUUGAAACUAAGUCUGUGUAUCC; experiment: UV-Vis absorbance shift; conditions: 30 mM MgCl2, 140 mM KCl, 10 mM NaCl; 50 mM Tris pH 7.0; 40 µM RNA, 40 µM FAD; ∆λmax 8
[34] = system: X2B2-A22U (RNA, aptamer) GGAUACACAAGAGCGAUUGAAUCUAAGUCUGUGUAUCC; experiment: UV-Vis absorbance shift; conditions: 30 mM MgCl2, 140 mM KCl, 10 mM NaCl; 50 mM Tris pH 7.0; 40 µM RNA, 40 µM FAD; ∆λmax 2

Kd [1]: 885 ± 85 nM
Kd [2]: 5333 ± 722 nM
SMILES: Cc1cc2nc3c(=O)[nH]c(=O)nc-3n(C[C@H](O)[C@H](O)[C@H](O)CO)c2cc1C

binding [3]: yes
Kd [1]: 243 ± 28 nM
binding [4]: yes
Kd [2]: 1414 ± 97 nM
binding [5]: yes
SMILES: Cc1cc2nc3c(=O)[nH]c(=O)nc-3n(C[C@H](O)[C@H](O)[C@H](O)COP(=O)(O)O)c2cc1C

binding [6]: no
binding [7]: no
binding [8]: yes
binding [9]: weak
binding [10]: yes
binding [11]: weak
binding [12]: no
binding [13]: no
binding [14]: yes
Kd [1]: 818 ± 32 nM
binding [15]: yes
binding [16]: yes
binding [17]: yes
binding [18]: no
Kd [2]: 7244 ± 398 nM
binding [19]: no
binding [20]: weak
binding [21]: weak
binding [22]: yes
binding [23]: weak
binding [24]: weak
binding [25]: no
binding [26]: no
binding [27]: weak
binding [28]: yes
binding [29]: yes
binding [30]: weak
binding [31]: no
binding [32]: no
binding [33]: yes
binding [34]: weak
SMILES: Cc1cc2nc3c(=O)[nH]c(=O)nc-3n(C[C@H](O)[C@H](O)[C@H](O)COP(=O)(O)OP(=O)(O)OC[C@H]3O[C@@H](n4cnc5c(N)ncnc54)[C@H](O)[C@@H]3O)c2cc1C
